What follows are compounds tested on ATXN1(60Q) (assay: Daoy-ATXN1(60Q)-mATXN1 MSD assay (CTG normalized)). Conditions: Daoy-Flag-ATXN1(60Q) stable cells, compound added Day 2, lysis Day 3, final DMSO 0.3%, read-out: Daoy-ATXN1(60Q)-mATXN1 MSD (CTG normalized) DC50.
Type: cell-based
Description: Protocol for MSD Assay: Daoy-ATXN1(600)-mATXN1 MSD (CTG normalized)
The Flag-ATXN1(60Q) gene is synthesized by Genescript and cloned into the pLVX-IRES-Puro vector (Takarabio, catalog No. 632183) using EcoRI/BamHI restriction enzyme sites. Lentivirus is made by transfecting HEK293T cells with pLVX-IRES-Puro-Flag-ATXN1(60Q) plasmids and packaging plasmids psPAX2 and pMD2.G at 4:3:1 ratio (8:6:[…], respectively) in 10 cm plates, and are harvested at 48 hours post transfection. Daoy cells (ATCC catalog No. HTB-186) seeded in T25 flasks are infected with the lentivirus in the presence of 8 µg/mL polybrene (Sigma, TR-1003-G) for 24 hours. 48 hours post infection, the cells are selected using 0.5 […] (Sigma, P8833) for more than 5 days until all cells in the uninfected group die. The expression of Flag-ATXN1(60Q) is verified by anti-Flag immunoblot using anti-Flag antibody (Sigma, F1804-200UG, M2).
As explained above, Daoy-Flag-ATXN1(60Q) cells are prepared as a stable cell line by infecting Daoy cells with lentivirus. The media for the cells is EMEM (ATTC, 30-2008) with 10% fetal bovin serum (FBS).
On Day 1, the Daoy-Flag-ATXN1(60Q) cells are seeded in a 96 well plate at a concentration of 1.2×10^4/well. On Day 2, the cells are treated with test compounds at test concentrations (compounds are serially diluted with DMSO to obtain test concentrations, such that final DMSO concentration is 0.3%). On Day 3, the cells are washed with 100 μL of phosphate-buffered saline (PBS) per well, and then 30 μL of radioimmuno-precipitation assay (RIPA) buffer (with protease and phosphatase inhibitor cocktail) is added to each well.
The well plate is then cooled on ice for 30 minutes in order to complete lysis, and MSD samples are prepared using 10 μL of Daoy-Flag-ATXN1-60Q lysate and 90 μL of RIPA buffer with gentle mixing. Each MSD sample has a total volume of 100 μL, and is used immediately or stored at −80° C.
A standard Meso Scale Discovery (MSD) plate is coated with anti-Flag (Sigma, F1804-200UG, M2) in PBS at 1:500 dilution ratio and 40 µL/well, and is incubated at 4° C. overnight with shaking at 600 rpm. Then, the MSD plate is washed 3 times with 150 µL/well of 1X TBST (tris-buffered saline (TBS) with Tween 20) buffer, and the MSD plate is blocked with 150 μL of blocking buffer [3% Blocker A in 1X TBST, (3 g Blocker A per 100 mL 1X TBST)] and shaken for 1 hour at 600 rpm at room temperature. Then, the MSD plate is washed three times with 150 μL/well of 1X TBST. Next, the diluted lysate samples (from Sample Preparation above) are added to the MSD plate at 25 μL/well, and the MSD plate is shaken at 600 rpm for 1 hour at room temperature. Then the MSD plate is washed 3 times with 150 μL/well of 1X TBST.
Detection antibody anti-Ataxin 1 (G-bio, ITA1916) (1:500), which is prepared in antibody detection buffer (1% Blocker A in 1X TBST), is then added to the MSD plate at 25 µL/well, and the MSD plate is shaken at 600 rpm for 1 hour at room temperature. The MSD plate is then washed three times with 150 μL/well of 1X TBST. Next, a secondary detection antibody, Goat anti-rabit (GAR) with SULFO-TAG (1:500), which is prepared in antibody detection buffer (1% Blocker A in 1X TBST), is added at 25 μL/well and the MSD plate is shaken at 600 rpm for 1 hour at room temperature. Then the MSD plate is washed 3 times with 150 μL/well of 1X TBST, and 2X MSD reading buffer is added at 150 μL/well (diluted from 4x MSD reading buffer with water). Finally, the signal from each well is measured on the MSD Meso QuickPle SQ120 Plate Reader. DC50 data is calculated using collaborate drug discovery (CDD) software (https://www.collaborativedrug.com/about).

Structure (SMILES)	DC50 [µM]
N/C(=C1\C(=O)Nc2ccc(Br)cc21)c1cc(O)c(Br)cn1 [Example 83, (Z)-3-(amino(5-bromo-4-hydroxypyridin-2-yl)methylene)-5-bromoindolin-2-one]	> 30
N/C(=C1\C(=O)Nc2ccc(Br)cc21)c1cncc(O)c1 [Example 84, (Z)-3-(amino(5-hydroxypyridin-3-yl)methylene)-5-bromoindolin-2-one]	< 10
C/C(=C1\C(=O)Nc2ccc(Br)cc21)c1cccc(O)c1 [Example 85, (E)-5-bromo-3-(1-(3-hydroxyphenyl)ethylidene)indolin-2-one]	10 to 30
C/C(=C1\C(=O)Nc2ccc(Br)cc21)c1ccc2[nH]c(=O)oc2c1 [Example 88, (E)-6-(1-(5-bromo-2-oxoindolin-3-ylidene)ethyl)benzo[d]oxazol-2(3H)-one]	> 30
C/C(=C1\C(=O)Nc2ccc(Br)cc21)c1ccc(F)c(O)c1 [Example 92, (E)-5-bromo-3-(1-(4-fluoro-3-hydroxyphenyl)ethylidene) indolin-2-one]	< 10
CC(=C1C(=O)Nc2ccc(C(F)(F)F)cc21)c1cccc(O)c1 [Example 95, 3-(1-(3-Hydroxyphenyl)ethylidene)-5-(trifluoromethyl) indolin-2-one]	< 10
C/C(=C1\C(=O)Nc2ccc(Br)cc21)c1cc(O)c(O)c(Br)c1 [Example 98, 5-Bromo-3-(1-(3-bromo-4,5-dihydroxyphenyl)ethylidene)indolin-2-one]	> 30
CCC/C(=C1\C(=O)Nc2ccc(Br)cc21)c1cccc(O)c1 [Example 100, (E)-5-bromo-3-(1-(3-hydroxyphenyl)butylidene)indolin-2-one]	< 10

— patent US20250051282A1, “COMPOUNDS FOR TREATING POLYQ-RELATED NEURODEGENERATIVE DISORDERS” (HANGZHOU JIJING PHARMACEUTICAL TECHNOLOGY LIMITED, priority 2021, published 2025)
